Patent US8207346B2, “Methods of synthesizing anatabine” (Rock Creek Pharmaceuticals, Inc., priority 2010, dated 2012)

Key:
[1] = system: monoamine oxidase (MAO); settings: known from Williams et al. U.S. Pat. No. 6,929,811; cited from earlier work
[2] = Stability analysis of anatabine base with and without BHT as a preservative; format: physicochemical
Description: See, for example, Tables 3 and 4 in Examples 4 and 5, respectively. Purity of the anatabine may be retained for extended periods of time. […] Further, anatabine remains stable when stored at a variety of temperatures. For example, the anatabine retains the indicated purity when stored at −20° C. to −10° C., −20° C. to 0° C., −10° C. to 0° C., 0° C. to 4° C., 2° C. to 8° C., 5° C. to 10° C., 10° C. to 15° C., 15° C. to 25° C., or 25° C. to 28° C. Stability is determined by any suitable art-recognized method. For example, anatabine stability may be monitored by high performance liquid chromatography (HPLC), liquid chromatography-mass spectroscopy (LC-MS), or nuclear magnetic resonance (NMR).
Anatabine base stability was analyzed with and without BHT (3,5-di-tert-butyl-4-hydroxytoluene). The initial purity of BHT-free anatabine base was 94.95%. The initial purity of anatabine base with BHT was 94.87%.

In the case of C1=CCC(c2cccnc2)NC1 (stereo not shown) [anatabine base without BHT, Anatabine], the “Inhibition of monoamine oxidase (MAO)” value [1] is given as “inhibit monoamine oxidase (MAO)”, the “Purity (%)” value ([2]; day 1, storage temperature 2-8° C.) is given as 94.44% and the “Purity (%)” value ([2]; day 1, storage temperature 25-28° C.) is given as 89.63%. For the same compound, the “Purity (%)” value ([2]; day 1, storage temperature −20° C.) was 93.90%, the “Purity (%)” value ([2]; day 2, storage temperature 2-8° C.) was 94.05% and the “Purity (%)” value ([2]; day 2, storage temperature 25-28° C.) was 87.59%. The “Purity (%)” value ([2]; day 2, storage temperature −20° C.) was 94.62%, the “Purity (%)” value ([2]; day 3, storage temperature 2-8° C.) was 91.65% and the “Purity (%)” value ([2]; day 3, storage temperature 25-28° C.) was 80.74%. The “Purity (%)” value ([2]; day 3, storage temperature −20° C.) was 93.87%, the “Purity (%)” value ([2]; day 12, storage temperature 2-8° C.) was 90.12% and the “Purity (%)” value ([2]; day 12, storage temperature 25-28° C.) was 79.59%. The “Purity (%)” value ([2]; day 12, storage temperature −20° C.) was 94.01%.
